Assay results from paper PMC6017090, “Design, Synthesis and Biological Evaluation of Novel N-Pyridyl-Hydrazone Derivatives as Potential Monoamine Oxidase (MAO) Inhibitors” (Molecules : A Journal of Synthetic Chemistry and Natural …, 2018).

Columns and labels:
[1] = test system: NIH/3T3 mouse embryonic fibroblast cells
Experimental: The MTT assay was performed as previously described [21, 22, 23, 24, 25, 26].

[2] = target: T1, human recombinant MAO-B (Homo sapiens, UniProt P27338); experiment: MAO activity assay (fluorometric, kynuramine substrate), MAO-B; type: biochemical; conditions: 10^−3 M; ± S.D.
T1 construct: purchased Sigma-Aldrich
T1 sequence (P27338 1-520): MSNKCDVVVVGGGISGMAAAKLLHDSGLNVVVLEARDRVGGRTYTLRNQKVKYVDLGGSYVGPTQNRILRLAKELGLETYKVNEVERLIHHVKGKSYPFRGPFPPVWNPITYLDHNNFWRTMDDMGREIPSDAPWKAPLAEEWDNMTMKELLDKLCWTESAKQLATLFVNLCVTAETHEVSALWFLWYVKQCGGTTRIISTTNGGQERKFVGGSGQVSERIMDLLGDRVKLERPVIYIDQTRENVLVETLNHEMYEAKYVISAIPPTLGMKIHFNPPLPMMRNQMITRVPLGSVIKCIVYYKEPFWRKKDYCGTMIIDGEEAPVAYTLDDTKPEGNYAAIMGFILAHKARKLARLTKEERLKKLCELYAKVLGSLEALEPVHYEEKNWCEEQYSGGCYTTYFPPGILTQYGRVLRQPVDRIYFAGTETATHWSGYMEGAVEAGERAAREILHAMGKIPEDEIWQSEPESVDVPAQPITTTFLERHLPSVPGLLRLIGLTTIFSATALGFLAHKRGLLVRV
Experimental: (§1) The enzyme activity assay was performed in accordance with the procedure reported by Matsumoto et al. with slight modifications. All materials used in the enzymatic assays were purchased from Sigma-Aldrich Chemicals. All pipetting protocols in the assay were performed by the Biotek Precision robotic system (BioTek Instruments, Inc., Winooski, VT, USA). To prevent the effect of light MAO enzymes, the assay was performed in 96-well black plates. Phosphate buffer (0.1 M, pH = 7.4) was used for the preparation of 5 mg/mL stock solutions of the human recombinant MAO-A and MAO-B enzymes. The enzyme stock solutions were further diluted with an assay buffer to obtain final concentrations of 0.006 mg/mL MAO-A and 0.015 mg/mL MAO-B. Kynuramine was dissolved in sterilized distilled water to obtain a 25 mM stock solution and then diluted with the assay buffer to obtain final concentrations of 40 μM for the MAO-A enzyme and 20 μM for the MAO-B enzyme. […] The addition of the diluted compounds was followed by the addition of either the MAO-A or MAO-B enzymes (50 μL/well). […] Fluorescence was read from top by using BioTek-Synergy H1 multimode microplate reader at the excitation/emission wavelengths of 310 and 380 nm.
(§2) The IC50 values (Table 2) were calculated from the plots of enzyme activity against concentrations, and the regression analyses were computed in GraphPad Prism Version 6 (GraphPad Software, Inc., La Jolla, CA, USA).

[3] = target: T2, MAO-A enzyme (Homo sapiens, UniProt P21397); experiment: MAO activity assay (fluorometric, kynuramine substrate), MAO-A; type: biochemical
T2 construct: purchased Sigma-Aldrich
T2 sequence (P21397 1-527): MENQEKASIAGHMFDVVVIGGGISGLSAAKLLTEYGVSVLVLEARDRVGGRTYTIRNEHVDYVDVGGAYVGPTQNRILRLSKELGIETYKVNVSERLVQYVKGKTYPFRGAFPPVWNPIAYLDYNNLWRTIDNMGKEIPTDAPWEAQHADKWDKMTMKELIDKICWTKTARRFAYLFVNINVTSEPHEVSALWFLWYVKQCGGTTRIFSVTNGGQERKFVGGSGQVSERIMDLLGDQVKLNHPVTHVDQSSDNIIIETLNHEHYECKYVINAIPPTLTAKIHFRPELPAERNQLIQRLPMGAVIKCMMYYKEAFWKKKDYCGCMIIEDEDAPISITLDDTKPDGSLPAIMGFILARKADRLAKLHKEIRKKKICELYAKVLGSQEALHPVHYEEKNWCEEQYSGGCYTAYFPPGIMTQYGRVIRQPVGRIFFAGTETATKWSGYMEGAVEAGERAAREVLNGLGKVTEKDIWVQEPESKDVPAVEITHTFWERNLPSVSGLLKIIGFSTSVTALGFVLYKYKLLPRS
Experimental: as §1, with “Phosphate buffer (0.1 M, pH = 7.4) was used for the preparation of 5 mg/mL stock solutions of the human recombinant MAO-A and MAO-B enzymes.” left out
as §2

## CCOc1ccc([N+](=O)[O-])c(NN=Cc2ccccn2)n1 [Compound 2n, 6-Ethoxy-3-nitro-2[(2-(pyridine-2-yl)methylene)hydrazinyl]pyridine]
[1]
  IC50: > 1000 µM
[2]
  MAO-B Inhibition %: 42.00 ± 1.21%
[3]
  IC50: 9.52 µM
[3]; 10^−3 M, ± S.D.
  MAO-A Inhibition %: 72.07 ± 1.56%
[3]; 10^−4 M, ± S.D.
  MAO-A Inhibition %: 56.90 ± 1.50%
[3]; 10^−5 M
  MAO-A Inhibition %: 42.13 ± 1.22%
[3]; 10^−6 M
  MAO-A Inhibition %: 35.11 ± 1.18%
[3]; 10^−7 M
  MAO-A Inhibition %: 24.96 ± 0.83%
[3]; 10^−8 M
  MAO-A Inhibition %: 18.02 ± 0.77%
[3]; 10^−9 M
  MAO-A Inhibition %: 10.40 ± 0.29%
